From patent US12263177B2, “Biologically active ganoderma lucidum compounds and synthesis of anticancer derivatives; ergosterol peroxide probes for cellular localization” (priority 2019, dated 2025) come the findings set out here.

What is called EC50 is the concentration that produces a half-maximal response. Read a low EC50 as greater potency.

Series [1] concerns HMEC. The series is described as follows: Cytotoxicity of EP probes via CTG assay, normal cells. It is filed as cell-based. The following applies: Homo sapiens, HMEC, 72 hr.
Description: Both normal cell lines HMEC and BJ cells were also evaluated to determine therapeutic index.
The concentrations used were experimentally determined to ensure logarithmic growth during the duration of the experiment and prevent adverse effects on cell growth by DMSO exposure. The plates were incubated at 37° C. in 5% CO2 for 24 h before treatment. Stock solutions of test compounds (10 mM in DMSO) in nine 3-fold serial dilutions were dispensed via pintool (Biomek). The final concentration of DMSO was 0.3% (v/v) in each well. The plates were incubated for 72 h at 37° C. in 5% CO2 and then quenched with CellTiter-Glo® reagent (50 μL/well in 96-well plate, 30 μL/well in 384-well plate) at RT. The positive controls included staurosporine (10 μM), gambogic acid (10 μM), and a toxic quinoline generated in-house. Plates were then incubated at RT for 20 min and centrifuged at 1000 rpm for 1 min. The cytotoxicity assay was performed by using the CellTiterGlo Luminescent Cell Viability Assay kit (G7570, Promega, Madison, WI) according to the manufacturer's instructions. Luminescence was recorded in an Envision plate reader (Perkin Elmer).
(§3) For the CTG assay, 3 or 4 replicate assays were conducted for each experimental condition, and a minimum of 3 independent experiments were conducted for cellular assays. The mean luminescence of each experimental treatment group was normalized as a percentage of the mean intensity of untreated controls. EC50 values (μM) were calculated by Pipeline Pilot Software (Accelrys, Enterprise Platform, CA, USA). EC50 values (μM) from the viability assay were calculated from dose response curve-fitting via non-linear regression by using GraphPad Prism (Version 7.0 San Diego, CA).
In series [2] the test system is SUM-190 IBC cells. The series is described as follows: Cell viability assay (CellTiter-Glo or PI staining). The following applies: SUM190; FIG. 4E. It is filed as cell-based. A general note: ATP-based viability assays read luminescence as a measure of living cells.
Description: Different concentrations of GLE-extracted bioactive chemical components were tested for 72-h treatment periods.
Either 1×10^3-4.8×10^3 or 4×10^2-1.2×10^3 cells were seeded to each well of 96- or 384-well white polystyrene flat-bottomed plates (3610 or 8804BC, Corning) in 100 μL or 30 μL media per well, respectively. The concentrations used were experimentally determined to ensure logarithmic growth during the duration of the experiment and prevent adverse effects on cell growth by DMSO exposure. The plates were incubated at 37° C. in 5% CO2 for 24 h before treatment. Stock solutions of test compounds (10 mM in DMSO) in nine 3-fold serial dilutions were dispensed via pintool (Biomek). The final concentration of DMSO was 0.3% (v/v) in each well. […] Luminescence was recorded in an Envision plate reader (Perkin Elmer).
as §3
In series [3] the test system is additional cancer cellular models. The series is described as follows: Cell viability assay, additional cancer models. It is filed as cell-based. The source says: Therefore, EP exerts selective effects on cancer cell viability, similar to the effects obtained with whole mushroom extract (GLE), indicating an ample therapeutic window for this compound.
Series [4] deals with MDA-MB-231 cells. The series is described as follows: ApoTox-Glo Triplex assay (caspase 3/7). The following applies: MDA-MB-231, 24 h. It is filed as cell-based, human. As to the method: (§1) Cells commonly fail to bypass the G1 phase of the cycle due to mutations or DNA damage, which can result in apoptosis. […] In addition, caspase 3/7 activity assays were performed as an alternate method of apoptosis detection.
(§2) Cells (9.5×10^4/well in 75 μL of fresh medium) were dispensed in 96-well black flat bottom (8807BC, Corning) plates. The cells were incubated for 12 h at 37° C. and then treated with compounds (25 μL) for 24 h. DMSO was used as a negative control, and staurosporine was used as the positive control. The experiment was stopped by adding the Viability/Cytotoxicity Reagent and briefly mixed by orbital shaking (300-500 rpm for ˜30 sec). Plates were incubated for 30 min at 37° C., and fluorescence was measured in an Envision plate reader at the following two wavelength sets: 400Ex/505Em (Viability) 485Ex/520Em (Cytotoxicity). Then, the Caspase-Glo® 3/7 Reagent was added; plates were mixed briefly by orbital shaking (300-500 rpm for ˜30 sec), followed by an additional 30 min incubation at RT. Then luminescence, which correlates with caspase 3/7 activation, was recorded with a plate reader to determine apoptosis induction.

For series [5], the system named is SUM-149 cells. The series is described as follows: ApoTox-Glo Triplex assay (caspase 3/7). The note with it: SUM-149, 24 h. It is filed as cell-based, human. As to the method:
as §1, §2

The test system of series [6] is MDA-MB-231 breast cancer cells. The series is described as follows: De novo in-cell protein synthesis (click assay). It is filed as cell-based, human. The following applies: 2 h treatment; EP 20 μM. How it is done: First, 2.5×10^4 cells/well were seeded in 8-well μ-slides (Ibidi®, #80826) and incubated at 37° C. for 12 h. The cells were treated with vehicle, compounds Ganoderic acid A or EP, or cycloheximide (positive control) for 2 h to determine protein synthesis as nascent proteins generated using Biovision's EZClick™ Global Protein Synthesis Assay Kit, (#K715-100, Milpitas, CA). The assay includes a robust chemical method based on an alkyne containing o-propargyl-puromycin (OP-puro) probe, which stops translation by forming covalent conjugates with nascent polypeptide chains. Truncated polypeptides are rapidly turned over by the proteasome and can be detected based on the subsequent click reaction with a fluorescent azide. The reaction was conducted according to the manufacturer's protocol. Cells were imaged at 20× with a Nikon C2 scanning confocal microscope, and the whole image montage was quantified by using Gen5 Software and Lionheart™ FX Automated Microscope (BioTek, Winooski, VT).

In series [7] the test system is MDA-MB-231 cells. The series is described as follows: Reactive oxygen species (ROS) measurement, CellROX. It is filed as cell-based, human. The following applies: EP 20 μM, vs vehicle.
In series [8] the test system is SUM-149 cells. Nature of the series: Reactive oxygen species (ROS) measurement, CellROX. The class given is cell-based, human.
Series [9] relates to SUM-149 cells. Nature of the series: Migration assay (Boyden chamber). It is filed as cell-based, human. The following applies: 10 μM, 72 h. How it is done:
Previously, the anti-migratory activities of whole mushroom GLE in SUM-149 cells was reported. To investigate EP's effects on cell migration, Boyden chamber assays; while to investigate invasion, Transwell chambers were used. […] Furthermore, an additional decrease (43%) was seen when cells were treated with a non-lethal dose of 15 μM of EP (P<0.01) (FIG. 8B).
Cell migration and invasion were measured by using Corning® FluoroBlok™ Cell Culture Inserts and performing BD BioCoat Matrigel invasion assays (BD Biosciences, San José, Calif.) as described in [12, 14].

The test system of series [10] is AKT isoforms, BCL-XL, Cyclin D1, c-Myc, PARP in SUM-149 cells. Nature of the series: Immunoblots of signaling proteins. The class given is cell-based, human. The source says:
Studies that focus on drivers of cancer cell survival and invasion signaling show the important role of the AKT isoforms in breast cancer. AKT1 and AKT3 are associated with breast cancer invasion, and PTEN-deficient tumors depend on AKT2 for maintenance and survival. […] Regulation of AKT isoform expression by EP is extremely similar to what the inventors reported with whole mushroom GLE in the same breast cancer cell lines.
Because EP induced apoptosis, its effects on the expression on anti-apoptosis proteins BCL-2 and BCL-XL, which block the release of cytochrome C from the mitochondria were investigated. […] The apoptosis inducing effects of EP in SUM-149 cells were investigated by monitoring PARP cleavage.
Breast cancer cells treated with vehicle or EP were lysed, and equal total protein was resolved via SDS-PAGE and immunoblotted with indicated antibodies (Cell Signaling Technologies, Abcam, Sigma) as described previously.
On the technique in general: In western blotting, separated proteins are transferred to a membrane and probed.

Series [11] in a line: Incubation with NAC monitored by NMR and LC-MS. It is filed as physicochemical. The following applies: DMSO, 24 h, 37° C. How it is done: Live-cell CellROX® assays for oxidative stress detection were conducted to evaluate whether GA-01, ergosterol, 5-6-dihydroergosterol and EP trigger intrinsic apoptosis pathways by inducing ROS. […] Menadione or t-Butyl hydrogen peroxide (TBHP) were positive controls (FIGS. 7 and S5) and co-treated with N-acetyl cysteine (NAC) to confirm that the signal was due to ROS formation induced by the compound. […] Furthermore, the possibility of the endoperoxide motif to react with NAC, was assessed EP was incubated with NAC in DMSO for 24 h at 37° C. […] Thus, the ability of EP to induce ROS could potentially be via a different mechanism from that of TBHP in MCF-7 cells.

`CC(C)[C@@H](C)/C=C/[C@@H](C)[C@H]1CC[C@@H]2[C@]1(C)CC[C@H]1[C@]23C=C[C@]2(C[C@@H](O)CC[C@]12C)OO3` [EP, ergosterol peroxide]: in series [1], the EC50 was over 20 µM. This compound registered an EC50 in series [2] of 43 µM. The EC50 in series [3] lay within 7 to 22 µM. Moreover, the “caspase 3/7 activity” value in series [4] is “increase caspase 3/7 activity”. Moreover, the “caspase 3/7 activity” value in series [5] is “increase caspase 3/7 activity”. Moreover, the “de novo protein synthesis inhibition” value in [6] was “do not inhibit de novo protein synthesis”. In [7], the “ROS formation, fold” value came out at 2 fold. In addition, the “ROS formation, fold” value in series [8] (EP 20 μM, vs vehicle) came to 4 fold. Besides, the “reduction in ROS formation in the presence of NAC” value in [8] (NAC 500 μM) was “about 20%”. Further, the cancer cell migration result in series [9] is “decreases cancer cell migration”. For the same compound, in series [10] (SUM-149), the AKT2 levels result is “decreases”, the AKT3 levels result is recorded as “not affecting”, the “expression of BCL-XL” value was “significantly reduces” and the “expression of Cyclin D1” value was “significantly reduces”. Besides, in series [10] (SUM-149), the “expression of c-Myc” value was “significantly reduces”, the “expression of p-AKT1 (Ser 473)” value is “significantly decreases”, the p-AKT2 result is recorded as “without affecting” and the “total AKT1 levels” value is “decreases”. Moreover, in series [10] (SUM-149, 24 h, EP 30 μM), the PARP cleavage entry was “induces PARP cleavage” and the “total PARP levels” value was “significantly reduces”. Also, the “reaction of the endoperoxide with NAC” value in series [11] is given as “no observable olefin migration or opening of the endoperoxide was detected”.
